From ChEMBL document CHEMBL1201862, “PubChem BioAssay data set” (2004) come the findings set out here.

Test systems include ACHN; MDA-MB-435; UO-31; HOP-62; SNB-75; NCI/ADR-RES; SR; HCT-116; OVCAR-3; NCI-H522; UACC-257; KM12; SN12C; MDA-N; EKVX; SK-OV-3; T47D; Malme-3M; NCI-H226; 786-0.
What all share (assay): inhibition of tumour cell growth, NCI panel, 48 h

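A five-concentration, 48-hour dose response in 96-well plates underlies each endpoint, interpolated linearly between surrounding concentrations. GI50 marks 50% less growth.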 The source made the active and inactive calls. Cut-off read from the data, not from the text of the source: active = GI50 up to about 1.1 µM and inactive = higher.

With `C=CCn1c(=O)c(C)cn(/C(=C/C(=O)OCC)C(=O)OCC)c1=O`, the GI50 in the experiment with ACHN is 9.08 µM (inactive); in the experiment with MDA-MB-435, 13.5 µM (inactive); in the experiment with UO-31, 15.7 µM (inactive); with HOP-62, 51.1 µM (inactive); in the experiment on SNB-75, 11.1 µM (inactive); in the experiment on NCI/ADR-RES, 21.1 µM (inactive). The GI50 in the experiment with SR is 5.33 µM (inactive); with HCT-116, 9.62 µM (inactive); in the experiment on OVCAR-3, 9.66 µM (inactive); in the experiment with NCI-H522 it was 1.69 µM (inactive); in the experiment on UACC-257, 20.5 µM (inactive); with KM12 it was 17.2 µM (inactive). Besides, the GI50 was 14.2 µM (inactive) in the experiment on SN12C; 13.9 µM (inactive) in the experiment on MDA-N; 14 µM (inactive) in the experiment with EKVX; 60 µM (inactive) in the experiment on SK-OV-3; 11.9 µM (inactive) with T47D; 13.8 µM (inactive) with Malme-3M. Further, the GI50 with NCI-H226 is 31.6 µM (inactive); in the experiment with 786-0 it was 5.87 µM (inactive).

In the case of `CN1CCN(Cc2nc3c(s2)CCc2sccc2-3)CC1`, the GI50 is > 100 µM (inactive) with ACHN; 54.2 µM (inactive) in the experiment on MDA-MB-435; 59.8 µM (inactive) in the experiment on UO-31; > 100 µM (inactive) with HOP-62; 75.7 µM (inactive) in the experiment with SNB-75; > 100 µM (inactive) with NCI/ADR-RES. Besides, the GI50 was 36.1 µM (inactive) in the experiment with SR; 62.5 µM (inactive) in the experiment with HCT-116; > 100 µM (inactive) in the experiment with OVCAR-3; > 100 µM (inactive) in the experiment on NCI-H522; 79.3 µM (inactive) in the experiment with UACC-257; > 100 µM (inactive) in the experiment on KM12. The GI50 is > 100 µM (inactive) in the experiment on SN12C; 48.6 µM (inactive) with MDA-N; > 100 µM (inactive) in the experiment with EKVX; > 100 µM (inactive) with SK-OV-3; 41.6 µM (inactive) in the experiment on T47D; 89.3 µM (inactive) in the experiment on Malme-3M. Moreover, the GI50 is > 100 µM (inactive) with NCI-H226 and 95.3 µM (inactive) in the experiment with 786-0.

Regarding `CN(C)CCNC(=O)c1c(O)ccc2c1c1c(n2CCc2ccccc2)C(=O)c2ccccc2C1=O`, the GI50 with ACHN is 9.18 µM (inactive); in the experiment on MDA-MB-435, 2.17 µM (inactive); in the experiment with UO-31, 5.26 µM (inactive); with HOP-62, 10.6 µM (inactive); in the experiment with SNB-75, 14.4 µM (inactive); in the experiment with NCI/ADR-RES it was 13.5 µM (inactive). The GI50 in the experiment with SR was 2.58 µM (inactive); with HCT-116 it was 3.6 µM (inactive); in the experiment on OVCAR-3, 12.9 µM (inactive); in the experiment with NCI-H522 it was 8.67 µM (inactive); in the experiment on UACC-257 it was 5.37 µM (inactive); in the experiment on KM12, 4.15 µM (inactive). The GI50 in the experiment with SN12C is 6.56 µM (inactive); in the experiment with MDA-N it was 2.25 µM (inactive); with EKVX, 14.6 µM (inactive); with SK-OV-3, 16.4 µM (inactive); with T47D, 3.66 µM (inactive); in the experiment with Malme-3M, 3.63 µM (inactive). Moreover, the GI50 is 16.8 µM (inactive) in the experiment with NCI-H226 and 4.36 µM (inactive) in the experiment on 786-0.

On to `COC(=O)c1ccccc1OCc1cc(=O)oc2ccc(C)cc12`, for which the GI50 is 63.2 µM (inactive) in the experiment with ACHN; > 100 µM (inactive) with MDA-MB-435; > 100 µM (inactive) with UO-31; 20 µM (inactive) in the experiment on HOP-62; 16.2 µM (inactive) in the experiment on SNB-75; 64.7 µM (inactive) in the experiment on NCI/ADR-RES. The GI50 with SR is > 100 µM (inactive); with HCT-116 it was 43.1 µM (inactive); in the experiment on OVCAR-3, 29.4 µM (inactive); in the experiment with NCI-H522 it was 14.8 µM (inactive); in the experiment on UACC-257, > 87.3 µM (inactive); in the experiment on KM12, > 100 µM (inactive). Moreover, the GI50 with SN12C is > 100 µM (inactive); in the experiment on MDA-N, > 100 µM (inactive); with EKVX, > 100 µM (inactive); in the experiment with SK-OV-3, 63.8 µM (inactive); in the experiment on T47D, 4.7 µM (inactive); with Malme-3M, > 100 µM (inactive). Moreover, the GI50 was 90.4 µM (inactive) with NCI-H226 and 39.1 µM (inactive) in the experiment on 786-0.

On to `CC1(C)SC2C(C(=O)O)N=C(Cc3ccccc3)N2C1C(=O)O` (stereo not given), for which the GI50 with ACHN is 38.9 µM (inactive); with MDA-MB-435, 40.7 µM (inactive); in the experiment with UO-31, 19.4 µM (inactive); with HOP-62, 32.1 µM (inactive); with SNB-75, 19.6 µM (inactive); with NCI/ADR-RES, 33.9 µM (inactive). The GI50 in the experiment with SR is 33.9 µM (inactive); with HCT-116, 24.9 µM (inactive); in the experiment with OVCAR-3, 49 µM (inactive); with NCI-H522, 51.3 µM (inactive); with UACC-257, 21.9 µM (inactive); with KM12 it was > 100 µM (inactive). For the same compound, the GI50 was 35 µM (inactive) in the experiment with SN12C; 49 µM (inactive) in the experiment on MDA-N; 3.97 µM (inactive) in the experiment with EKVX; 41.2 µM (inactive) in the experiment on SK-OV-3; 24.4 µM (inactive) with T47D; 62.2 µM (inactive) with Malme-3M. The GI50 was 29.8 µM (inactive) in the experiment on NCI-H226 and 19.8 µM (inactive) with 786-0.

`O=C(NC/C(Cl)=C/Cl)Nc1cccc2c1CCCC2`: the GI50 in the experiment with ACHN, in the experiment on MDA-MB-435, in the experiment with UO-31, in the experiment with HOP-62, in the experiment with SNB-75 and in the experiment on NCI/ADR-RES was > 100 µM (inactive) throughout. Also, the GI50 in the experiment with SR was 35.9 µM (inactive); in the experiment with HCT-116, > 100 µM (inactive); in the experiment with OVCAR-3, > 100 µM (inactive); in the experiment on NCI-H522, > 100 µM (inactive); in the experiment on UACC-257 it was 58.9 µM (inactive); in the experiment on KM12, > 100 µM (inactive). The GI50 with SN12C was > 100 µM (inactive); in the experiment with MDA-N, > 100 µM (inactive); with EKVX, 82.8 µM (inactive); in the experiment with SK-OV-3, > 100 µM (inactive); in the experiment with T47D it was 97.9 µM (inactive); in the experiment on Malme-3M, > 100 µM (inactive). Also, the GI50 in the experiment with NCI-H226 is > 100 µM (inactive); in the experiment on 786-0, 89.3 µM (inactive).

For the compound `COc1ccc(-c2c(C#N)c(=O)nc(SC)n2C2OCC(OC(C)=O)C(OC(C)=O)C2OC(C)=O)cc1` (stereo not given), the GI50 in the experiment with ACHN was 75 µM (inactive); in the experiment with MDA-MB-435, > 100 µM (inactive); in the experiment on UO-31, 38.6 µM (inactive); in the experiment on HOP-62, > 100 µM (inactive); in the experiment with SNB-75 it was 95.9 µM (inactive); in the experiment on NCI/ADR-RES, 91.2 µM (inactive). For the same compound, the GI50 in the experiment on SR is 5.11 µM (inactive); in the experiment on HCT-116, 31.6 µM (inactive); with OVCAR-3, > 100 µM (inactive); in the experiment on NCI-H522 it was 74 µM (inactive); with UACC-257, > 100 µM (inactive); with KM12, > 100 µM (inactive). The GI50 was > 100 µM (inactive) in the experiment on SN12C; 83.4 µM (inactive) with MDA-N; 87.5 µM (inactive) in the experiment on EKVX; > 100 µM (inactive) in the experiment with SK-OV-3; 63.4 µM (inactive) with T47D; > 100 µM (inactive) in the experiment with Malme-3M. Further, the GI50 in the experiment on NCI-H226 and in the experiment on 786-0 was > 100 µM (inactive) each time.

For the compound `C[C@]12CC[C@H]3[C@@H](CCC4=C[C@@H](N5CCCC5)CC[C@@]43C)[C@@H]1C/C(=C\c1ccncc1)[C@@H]2O`, the GI50 is 17 µM (inactive) with ACHN; 10.3 µM (inactive) in the experiment on MDA-MB-435; 4.92 µM (inactive) with UO-31; 4.68 µM (inactive) in the experiment with HOP-62; 14.3 µM (inactive) in the experiment on SNB-75; 17.6 µM (inactive) with NCI/ADR-RES. Also, the GI50 is 3.16 µM (inactive) in the experiment with SR; 7.91 µM (inactive) in the experiment on HCT-116; 16.4 µM (inactive) in the experiment with OVCAR-3; 10.3 µM (inactive) in the experiment on NCI-H522; 6.19 µM (inactive) with UACC-257; 9.57 µM (inactive) in the experiment on KM12. For the same compound, the GI50 in the experiment with SN12C was 14.1 µM (inactive); in the experiment on MDA-N, 11.4 µM (inactive); with EKVX, 15.7 µM (inactive); in the experiment with SK-OV-3, 18 µM (inactive); in the experiment with T47D it was 16.4 µM (inactive); in the experiment on Malme-3M, 13.6 µM (inactive). The GI50 with NCI-H226 is 15.6 µM (inactive); in the experiment on 786-0, 2.86 µM (inactive).

`CCCC(=O)NC(NC1CCCCC1)(C(=O)OCC)C(F)(F)F` (stereo not given): the GI50 with ACHN is > 100 µM (inactive); in the experiment on MDA-MB-435, > 100 µM (inactive); with UO-31, > 100 µM (inactive); in the experiment with HOP-62, > 100 µM (inactive); in the experiment on SNB-75, 29.7 µM (inactive); in the experiment on NCI/ADR-RES it was > 100 µM (inactive). In addition, the GI50 with SR, with HCT-116, with OVCAR-3, in the experiment with NCI-H522, in the experiment on UACC-257 and with KM12 was > 100 µM (inactive) in each case. Further, the GI50 with SN12C, in the experiment on MDA-N, in the experiment on EKVX, in the experiment on SK-OV-3, with T47D and in the experiment on Malme-3M was > 100 µM (inactive) each time. Moreover, the GI50 in the experiment with NCI-H226 and in the experiment with 786-0 was > 100 µM (inactive) each time.

In the case of `COCCN(CCOC)C(=O)COc1c2cc(C(C)(C)C)cc1Cc1cc(C(C)(C)C)cc(c1OCC(=O)N(CCOC)CCOC)Cc1cc(C(C)(C)C)cc(c1OCC(=O)N(CCOC)CCOC)Cc1cc(C(C)(C)C)cc(c1OCC(=O)N(CCOC)CCOC)Cc1cc(C(C)(C)C)cc(c1OCC(=O)N(CCOC)CCOC)C2`, the GI50 in the experiment with ACHN was 0.817 µM (active); in the experiment with MDA-MB-435, 2.09 µM (inactive); in the experiment on UO-31, 0.366 µM (active); with HOP-62 it was 1.73 µM (inactive); in the experiment on SNB-75 it was 0.0881 µM (active); in the experiment on NCI/ADR-RES, 10.7 µM (inactive). The GI50 in the experiment on SR was 0.352 µM (active); with HCT-116, 0.618 µM (active); with OVCAR-3 it was 0.288 µM (active); with NCI-H522 it was 0.655 µM (active); with UACC-257, 1.01 µM (active); with KM12, 0.518 µM (active). Further, the GI50 in the experiment on SN12C is 0.851 µM (active); in the experiment on MDA-N, 2.1 µM (inactive); in the experiment with EKVX it was 0.434 µM (active); with SK-OV-3 it was 3.05 µM (inactive); in the experiment with T47D it was 1.27 µM (inactive); in the experiment with Malme-3M it was 1.85 µM (inactive). For the same compound, the GI50 was 1.28 µM (inactive) with NCI-H226 and 2.15 µM (inactive) in the experiment with 786-0.
